Measurements taken from patent US20180250232A1, “PROCESS FOR PREPARING SPRAY DRIED SOLID DISPERSIONS OF (S)-N-(3-(6-ISOPROPOXYPYRIDIN-3-YL)-1H-INDAZOL-5-YL)-1-(2-(4-(4-(1-METHYL-1H-1,2,4-TRIAZOL-3-YL)PHENYL)-3,6-DIHYDROPYRIDIN-1(2H)-YL)-2-OXOETHYL)-3-(METHYLTHIO)PYRROLIDINE-3-CARBOXAMIDE FOR PHARMACEUTICAL PREPARATIONS” (Merck Sharp & Dohme Corp., priority 2015, published 2018).

Experiment: polymorph studies / competition slurry experiments
Type: physicochemical
Description: Preliminary polymorph screening for (S)—N-(3-(6-isopropoxypyridin-3-yl)-1H-indazol-5-yl)-1-(2-(4-(4-(1-methyl-1H-1,2,4-triazol-3-yl)phenyl)-3,6-dihydropyridin-1(2H)-yl)-2-oxoethyl)-3-(methylthio)pyrrolidine-3-carboxamide were conducted by solvent-mediated slurry experiments in 10 different solvents or solvent mixtures using the amorphous compound as the starting material.

more stable form in competition slurry experiments (hydrate form 1 and 2 as seeds in H2O/methanol mixture (H2O activity of 0.5), room temperature and 4° C.): more stable form in both experiments
SMILES: CS[C@@]1(C(=O)Nc2ccc3[nH]nc(-c4ccc(OC(C)C)nc4)c3c2)CCN(CC(=O)N2CC=C(c3ccc(-c4ncn(C)n4)cc3)CC2)C1 [hydrate form 2, (S)—N-(3-(6-isopropoxypyridin-3-yl)-1H-indazol-5-yl)-1-(2-(4-(4-(1-methyl-1H-1,2,4-triazol-3-yl)phenyl)-3,6-dihydropyridin-1(2H)-yl)-2-oxoethyl)-3-(methylthio)pyrrolidine-3-carboxamide crystalline free base hydrate form 2]
stability of crystalline form (polymorph studies) (room temperature): most stable crystalline form at room temperature
